According to patent US20050228041A1, “Protective and therapeutic uses for tocotrienols” (priority 2003, published 2005):
Entries after “also recorded” stand apart in the source; their conditions may differ.

Tests used:
HT4 neurons = details: nM concentrations; Sen et al., 2000; cited from earlier work
primary neurons = assay: Cellular glutathione (GSH) in glutamate-treated primary neurons (HPLC-coulometric); type: cell-based, rat; details: glutamate 10 mM; α-tocotrienol 100 nM or BL15 2.5 μM
Procedure: First, we tested for the involvement of 12-LOX in the execution of glutamate-induced death in our model. We started by using the 12-LOX specific inhibitor baicalein or BL15. Referring to FIG. 3, HT4 neurons (A) were either treated or not with a-tocotrienol (250 nM) or […] (2.5 μM, 12-lipoxygenase inhibitor) for 5 min and then challenged with glutamate (10 mM). Cell viability was determined using propidium iodide (PI) exclusion flow cytometry assay. PI−=live; PI+=dead. Rat primary immature cortical neurons (B-D) were either treated or not with α-tocotrienol (100 nM) or BL15 (2.5 μM) for 5 min and challenged either with glutamate (10 mM; B); L-homocysteic acid (1 mM; C) or buthionine sulfoximine (0.15 mM; BSO; D) for 24 h. Arachidonic acid, 50 μM for 24h. BL15, Baicalein 5,6,7-trihydroxy-flavone. […] B-E: †, lower compared to the corresponding control non-treated group; *, higher compared to the corresponding toxin-treated group. P<0.05.
Glutathione assay. Glutathione (GSH) was detected using a HPLC-coulometric electrode array detector (Coularray Detector—model 5600 with 12 channels; ESA Inc., Chelmsford, Mass.). […] Glutathione was detected at channels set at following potentials: I) 600 mV, II) 700 mV; and II) 800 mV. Signals from channel set at 800 mV were used for quantification (Sen et al., 2002).

[1] = system: rat primary cortical neurons; assay: Imaging of glutamate-induced degeneration of rat primary cortical neurons (immunofluorescence, live cell imaging); type: cell-based; details: glutamate 10 mM, α-tocotrienol 250 nM or BL15 2.5 μM 5 min before
Procedure: Phase contrast images were collected once every 15 mins for 18 h from 8 h after glutamate treatment.
For immunofluorescence microscopy, primary cultures of rat cortical neurons were plated on 35 mm plates pre-coated with poly-L-lysine. After 24 h, cell were treated with α-tocotrienol or BL15 for 5 minutes and then challenged with glutamate or exposed to glutamate. After 24 h of glutamate exposure, cells were washed thrice in PBS, fixed for 10 minutes at room temperature in 4% paraformaldehyde, and permeabilized with PBS-T (PBS containing 0.2% Triton X-100) for 20 minutes at room temperature. Samples were then rinsed 3× with PBS-T and blocking (2% BSA in PBS-T) was done for 1 h at room temperature. After blocking, samples were incubated overnight at 4° C. with the primary antibody (anti-neurofilament 200 (1:100, Sigma St. Louis, Mo.) or neuronal class III α-tubulin (1:500, Covance Berkeley, Calif.)}. After washing with PBS (3×, 5 min each), the samples were incubated with Alexa Fluor 488 conjugated goat anti-mouse or anti-rabbit (Molecular Probes Eugene, Oreg.) secondary antibody for 45 minutes at room temperature. This was followed by three PBS washes, and mounting in aqueous medium. Fluorescent images were collected using a Zeiss Axiovert 200M microscope. Images were acquired using Axiovision 3.1.
For live cell imaging, primary cultures of rat cortical neurons were plated on 35 mm plates pre-coated with poly-L-lysine. […] Images were collected once every 15 minutes using a specialized phase contrast Zeiss optics suited for imaging cells growing in routine culture plates.

[2] = system: 12-lipoxygenase activity in HT4 neurons; assay: 12(S)-HETE, product of 12-lipoxygenase activity, in glutamate-treated HT4 neurons (HPLC); type: cell-based, mouse; details: HT4, glutamate 12 h
Procedure: Neurons isolated from 12-LOX deficient mice are resistant to glutamate-induced death (FIG. 4). This striking finding reinforced our interest to test α-tocotrienol as an inhibitor of glutamate-inducible 12-LOX activity in neuronal cells. Referring to FIG. 5, Products of 12-lipoxygenase activity in glutamate-treated neurons were evaluated using a HPLC-based analytical approach. […] ND, not detectable. It was observed that the by-product of 12-LOX activity, 12(S)-HETE, was not detected in HT4 cells under basal culture conditions (FIG. 5). […] However, such increase was prevented in α-tocotrienol treated cells (FIG. 5). This line of observation led to the question whether over-expression of 12-LOX in HT4 cells would sensitize them to glutamate-induced cytotoxicity and whether α-tocotrienol could counter such toxicity.
12-HETE detection. 12-Hydroxy-eicosatetraenoic acid (HETE) from HT4 cells was detected using a HPLC-UV based method (Eberhard et al., 2000). Immunofluorescence microscopy. For immunofluorescence microscopy, primary cultures of rat cortical neurons were plated on 35 mm plates pre-coated with poly-L-lysine. After 24 h, cell were treated with α-tocotrienol or BL15 for 5 minutes and then challenged with glutamate or exposed to glutamate. […]

## CC(C)=CCC/C(C)=C/CC/C(C)=C/CC[C@]1(C)CCc2c(C)c(O)c(C)c(C)c2O1 [α-tocotrienol]
HT4 neurons
  protection of HT4 neurons from glutamate-induced death (previously reported): protects
Primary neurons
  cellular glutathione (GSH) in protected glutamate-treated primary neurons: loss of cellular glutathione
[1]
  glutamate-induced degeneration of the neural network and neuronal growth: resisted degeneration and continued to grow; also recorded: prevents glutamate-induced neuro-degeneration; also recorded: protection
[1]; listed as α-Tocotrienol
  glutamate-induced degeneration of the neural network and neuronal growth: insensitive to glutamate
[2]
  glutamate-induced increase of cellular 12(S)-HETE content: prevented
